Test results as given in ChEMBL document CHEMBL1201862, “PubChem BioAssay data set” (2004).
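Tested at 5 concentrations; 48 h exposure; 96-well plates; endpoints linearly interpolated, else capped at highest concentration. At the GI50, growth is halved.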 Activity calls are given as the source filed them. Cut-off read from the data, not from the text of the source: active = GI50 up to about 1.1 µM and inactive = higher.

What was measured:
Assay in all cases: growth of human tumour cells (NCI), 48 h
A549 = test system: A549
CCRF-CEM = test system: CCRF-CEM
EKVX = test system: EKVX
Hs-578T = test system: Hs-578T
K562 = test system: K562
M14 = test system: M14
MCF7 = test system: MCF7
MDA-MB-231 = test system: MDA-MB-231
NCI-H226 = test system: NCI-H226
NCI-H23 = test system: NCI-H23
OVCAR-3 = test system: OVCAR-3
T47D = test system: T47D
UACC-257 = test system: UACC-257
ACHN = test system: ACHN
HOP-92 = test system: HOP-92
KM12 = test system: KM12
LOX IMVI = test system: LOX IMVI
SNB-19 = test system: SNB-19
UO-31 = test system: UO-31
MDA-N = test system: MDA-N

Measured: GI50

Cc1ccc(-c2n[nH]c(=O)n2N2C(=O)C=CC2=O)cc1
inactive: A549 > 100 µM | CCRF-CEM > 100 µM | EKVX > 100 µM | Hs-578T > 100 µM | K562 > 100 µM | M14 > 100 µM | MCF7 > 100 µM | MDA-MB-231 > 100 µM | NCI-H226 > 100 µM | NCI-H23 > 100 µM | OVCAR-3 > 100 µM | T47D > 100 µM | UACC-257 > 100 µM

N#CCCN(CCN(C(=O)Nc1ccccc1)c1ccccc1)C(=O)Nc1ccccc1
inactive: A549 58.2 µM | ACHN 52.1 µM | CCRF-CEM 17.7 µM | EKVX 69.5 µM | HOP-92 > 63 µM | K562 29.9 µM | KM12 48.3 µM | LOX IMVI 49.8 µM | M14 77.6 µM | MCF7 > 71.1 µM | MDA-MB-231 > 100 µM | NCI-H226 79.4 µM | NCI-H23 > 60.1 µM | OVCAR-3 > 100 µM | SNB-19 > 57.3 µM | T47D > 35.1 µM | UACC-257 > 100 µM | UO-31 31.2 µM

COc1ccc(/C(=C/n2ccnc2)C(=O)c2ccc(OC)c(OC)c2)cc1
inactive: A549 > 100 µM | ACHN > 100 µM | CCRF-CEM > 100 µM | EKVX > 100 µM | HOP-92 > 100 µM | K562 > 100 µM | KM12 > 100 µM | LOX IMVI > 100 µM | M14 > 100 µM | NCI-H226 > 100 µM | NCI-H23 > 100 µM | OVCAR-3 > 100 µM | SNB-19 > 100 µM | UACC-257 > 100 µM | UO-31 > 100 µM

COC(=O)C(C(=O)C(=O)Nc1ccccc1C(C)=O)c1nc2ccc(Cl)cc2nc1O (stereo unspecified)
inactive: A549 > 100 µM | ACHN > 100 µM | CCRF-CEM > 100 µM | EKVX 56.9 µM | HOP-92 > 100 µM | K562 > 100 µM | KM12 > 100 µM | LOX IMVI > 100 µM | M14 > 100 µM | NCI-H226 78.3 µM | NCI-H23 > 100 µM | OVCAR-3 > 100 µM | SNB-19 > 100 µM | UACC-257 > 100 µM | UO-31 77.8 µM

Nc1c(Cl)ncnc1NCC1(CO)CCC1
inactive: A549 > 100 µM | ACHN > 100 µM | CCRF-CEM > 100 µM | EKVX 90.4 µM | HOP-92 > 100 µM | Hs-578T > 100 µM | K562 > 100 µM | KM12 > 100 µM | LOX IMVI > 100 µM | MCF7 > 100 µM | MDA-MB-231 > 100 µM | MDA-N > 100 µM | NCI-H226 > 100 µM | NCI-H23 > 100 µM | OVCAR-3 > 100 µM | UACC-257 63.4 µM | UO-31 > 100 µM

Oc1nc(-c2ccccc2)cc(-c2ccccc2O)n1
inactive: A549 83.4 µM | ACHN 67.6 µM | CCRF-CEM > 100 µM | EKVX 6.71 µM | HOP-92 84.5 µM | K562 > 100 µM | KM12 > 100 µM | LOX IMVI 51.5 µM | M14 > 100 µM | NCI-H226 > 100 µM | NCI-H23 > 100 µM | OVCAR-3 98.2 µM | SNB-19 58.2 µM | UACC-257 > 100 µM | UO-31 41 µM

CCOC(=O)C1=C(C)N(c2ccc(C)cc2)C2(O)C=CC(O)=C3C(=O)c4ccccc4C(=O)C312 (stereo unspecified)
inactive: A549 37.8 µM | ACHN 22.7 µM | CCRF-CEM 5.05 µM | EKVX 39.3 µM | HOP-92 19.3 µM | KM12 35.6 µM | LOX IMVI 25.2 µM | M14 36.6 µM | MCF7 23.3 µM | MDA-MB-231 34.4 µM | MDA-N 21.1 µM | NCI-H226 59.3 µM | NCI-H23 38.4 µM | OVCAR-3 34.9 µM | SNB-19 24.4 µM | UACC-257 22.9 µM | UO-31 17.7 µM

COC(=O)CCN(CCC(=O)OC)C1CC1
inactive: A549 > 100 µM | ACHN > 100 µM | CCRF-CEM > 100 µM | EKVX > 100 µM | HOP-92 28.3 µM | Hs-578T > 100 µM | K562 > 100 µM | KM12 > 100 µM | LOX IMVI > 100 µM | M14 > 100 µM | MCF7 > 100 µM | MDA-MB-231 > 100 µM | NCI-H226 > 100 µM | NCI-H23 > 100 µM | SNB-19 > 100 µM | T47D > 100 µM | UACC-257 > 100 µM | UO-31 76.7 µM

NNC(=O)c1cccc2c1Oc1ccccc1S2
inactive: ACHN > 100 µM | CCRF-CEM 63.1 µM | EKVX 23.8 µM | HOP-92 > 100 µM | Hs-578T 31.6 µM | K562 > 100 µM | KM12 > 100 µM | LOX IMVI 88.3 µM | M14 > 100 µM | MCF7 > 100 µM | MDA-MB-231 > 100 µM | NCI-H226 1.23 µM | NCI-H23 > 100 µM | SNB-19 > 100 µM | T47D 95.1 µM | UACC-257 > 100 µM | UO-31 > 100 µM

c1ccc2c(c1)[n-]n1c3ccc4nonc4c3n[n+]21
inactive: A549 > 100 µM | ACHN > 100 µM | CCRF-CEM > 100 µM | EKVX > 100 µM | HOP-92 > 100 µM | K562 > 100 µM | KM12 > 100 µM | LOX IMVI > 100 µM | M14 > 100 µM | MCF7 60.5 µM | MDA-MB-231 > 100 µM | MDA-N > 100 µM | NCI-H226 > 100 µM | NCI-H23 > 100 µM | OVCAR-3 > 100 µM | SNB-19 > 100 µM | UACC-257 > 100 µM | UO-31 > 100 µM

O=C(NNC(c1ccccc1)C(F)(F)F)c1ccncc1 (stereo unspecified)
inactive: A549 > 100 µM | ACHN > 100 µM | CCRF-CEM > 100 µM | EKVX > 100 µM | HOP-92 > 100 µM | K562 > 100 µM | KM12 > 100 µM | LOX IMVI > 100 µM | M14 > 100 µM | MCF7 > 100 µM | MDA-MB-231 > 100 µM | NCI-H226 > 100 µM | NCI-H23 > 100 µM | SNB-19 > 100 µM | UACC-257 > 100 µM

Cc1ccc(S(=O)(=O)Oc2nc3ccccc3nc2N(S(=O)(=O)c2ccc(C)cc2)S(=O)(=O)c2ccc(C)cc2)cc1
inactive: A549 85.1 µM | ACHN 45.9 µM | CCRF-CEM 50.1 µM | EKVX 30.3 µM | Hs-578T 63.1 µM | K562 > 10 µM | KM12 33.7 µM | LOX IMVI > 100 µM | M14 76.6 µM | MCF7 84.1 µM | MDA-MB-231 71.6 µM | MDA-N 45 µM | NCI-H226 22.5 µM | NCI-H23 47.8 µM | OVCAR-3 41.5 µM | SNB-19 66.8 µM | UACC-257 61.1 µM | UO-31 61.8 µM
